Laboratory results: patent publication US12384765B2, “Catecholamine prodrugs for use in the treatment of Parkinson's Disease” (H. Lundbeck A/S, priority 2019, dated 2025)
“Also recorded” adds a separate entry of the source.

Columns and labels:
human hepatocytes = assay: Conversion of compounds in human hepatocytes; format: in vitro ADME; conditions: 1 μM compound, 37° C.; nd: not detected
Description: Incubations were conducted in 96-well plates at 1 μM compound concentration in duplicate. The hepatocyte cell concentration was 0.5×10^6 cells/mL used for final incubation at 37° C. in an incubator of 5% CO2 95% relative humidity. The medium control samples were included at 0 and 60 minutes in the absence of cells. The total organic concentration was 1% (DMSO 0.1%) in the final incubation. The controls, (7-ethoxycoumarin and 7-hydroxycoumarin) was incubated parallel at 3 μM. 2 μL of dosing solution (50 μM for test compounds and 100 μM for positive control) was mixed with 98 μL of 100 mM PBS to achieve 1 μM test compound and 2 μM positive control of final concentration. The mixture was incubated, and samples were withdrawn from the incubations at pre-determined time points of 0, 0.5, 1, 2, 4 and 6 hr (in duplicate) at 37° C. in water bath. To each sample, 10 μL inhibitor and 20 μL ascorbic acid and 2 μL formic acid (20%) were added followed by 400 μL of stop solution (200 ng/mL tolbutamide plus 200 ng/mL labetalol in 50% ACN/MeOH). The substance was mixed thoroughly and thereafter centrifuged at 4,000 rpm for 20 minutes. An aliquot of supernatant (50 μL) from each well were transferred to a sample plate and mixed with 100 μL ultrapure water. The plate was shaked at 800 rpm for about 10 minutes before submitting to LC-MS/MS analysis.
(§1) Mass spectrometer (LC-MS/MS) Shimadzu LC 20-AD Shimadzu UHPLC API 4000. Analytical column ACQUITY UPLC® BEH Phenyl 1.7 μm 2.1×50 mm. Mobile phase A: 0.1% Formic Acid in Water. Mobile phase B: 0.1% Formic Acid in Acetonitrile. […] Flow rate 0.7 mL/min.

[1] = Conversion of compounds in human plasma; format: in vitro ADME; conditions: 1 μM test compound, 37° C., 0-6 hr; nd: not detected
Description: Frozen human plasma was thawed and then centrifuged at 3200×g for 5 min to remove debris. The pH value of the supernatant was then measured and adjusted to 7.4±0.1 by adding 1% phosphoric acid or 1 N sodium hydroxide. 2 μL of dosing solution (50 μM for test compounds and 100 μM for positive control (propantheline bromide)) was mixed with 98 μL of blank plasma to achieve 1 μM test compound and 2 μM positive control of final concentration. The mixture was incubated, and samples were withdrawn from the incubations at the pre-determined time points of 0, 0.5, 1, 2, 4 and 6 hr (in duplicate) at 37° C. in water bath. At each corresponding time point 10 μL inhibitor and 20 μL ascorbic acid and 2 μL formic acid (20%) are added, and then added 400 μL of “stop solution” (200 ng/mL tolbutamide plus 200 ng/mL labetalol in 50% ACN/MeOH) to precipitate protein. The substance was mixed thoroughly and thereafter Centrifugated at 4,000 rpm for 20 minutes. Then an aliquot of supernatant (50 μL) was transferred from each well to a sample plate and mixed with 100 μL ultrapure water. The plate was shaked at 800 rpm for about 10 minutes before submitting to LC-MS/MS analysis.
as §1

human 5-HT2B receptor = human 5-HT2B receptor (Homo sapiens (Human), UniProt P41595); assay: 5-HT2B agonist activity assay (IP1 production, HTRF); format: cell-based; conditions: read-out: 5-HT2B agonist activity, percent of control response
Chain of human 5-HT2B receptor (P41595 whole entry): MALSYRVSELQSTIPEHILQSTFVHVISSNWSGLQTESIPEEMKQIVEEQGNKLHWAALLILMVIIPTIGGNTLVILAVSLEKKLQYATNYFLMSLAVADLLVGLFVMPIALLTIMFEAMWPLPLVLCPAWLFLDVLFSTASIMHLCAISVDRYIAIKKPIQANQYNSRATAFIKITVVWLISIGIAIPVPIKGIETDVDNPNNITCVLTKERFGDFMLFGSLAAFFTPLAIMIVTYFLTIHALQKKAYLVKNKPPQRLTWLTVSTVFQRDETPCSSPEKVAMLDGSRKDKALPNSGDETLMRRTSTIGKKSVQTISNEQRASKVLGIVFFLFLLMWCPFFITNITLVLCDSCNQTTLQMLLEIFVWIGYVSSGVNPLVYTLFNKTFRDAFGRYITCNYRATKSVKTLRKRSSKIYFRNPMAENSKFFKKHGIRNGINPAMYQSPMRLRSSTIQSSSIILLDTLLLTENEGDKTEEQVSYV
Description: Evaluation of the agonist activity of compounds (I), (Ia), (Ib), (Ic), (Ia-iab), compound (2), compound (9), compound (15), compound (27), A2, A3, and A7 at the human 5-HT2B receptor was performed by Eurofins/Cerep (France) measuring the compound effects on inositol monophosphate (IP1) production using the HTRF detection method. Briefly, the human 5-HT2B receptor was expressed in transfected CHO cells. The cells were suspended in a buffer containing 10 mM Hepes/NaOH (pH 7.4), 4.2 mM KCl, 146 mM NaCl, 1 mM CaCl2, 0.5 mM MgCl2, 5.5 mM glucose and 50 mM LiCl, then distributed in microplates at a density of 4100 cells/well and incubated for 30 minutes at 37° C. in the presence of buffer (basal control), test compound or reference agonist. For stimulated control measurement, separate assay wells contained 1 μM 5-HT. Following incubation, the cells were lysed and the fluorescence acceptor (fluorophen D2-labeled IP1) and fluorescence donor (anti-IP1 antibody labeled with europium cryptate) were added. After 60 minutes at room temperature, the fluorescence transfer was measured at lambda(Ex) 337 nm and lambda(Em) 620 and 665 nm using a microplate reader (Rubystar, BMG). The IP1 concentration was determined by dividing the signal measured at 665 nm by that measured at 620 nm (ratio). The results were expressed as a percent of the control response to 1 μM 5-HT. The standard reference agonist was 5-HT, which was tested in each experiment at several concentrations to generate a concentration-response curve from which its EC50 value is calculated as described above for dopamine functional assays.

[2] = PK experiments in rats, plasma compound (I) after oral dosing; format: in vivo, Han Wistar rats; conditions: oral dosing, rats
Description: Plasma was placed on water-ice following collection. Final storage at approximately −70° C.
Mobile phase B: Acetonitrile. […] Flow rate 0.5 mL/min.
The rats had unrestricted access to the diet.
Mobile phase B: Acetonitrile+0.2% formic acid. […] Flow rate 0.3 mL/min.
The rats received a standard laboratory diet Teklad 2014C. The rats had unrestricted access to the diet.

male CD rats = assay: Rat locomotor activity (hyperactivity) assay, open field; format: in vivo; conditions: (Id-ia) 10 to 300 μg/kg p.o.; apomorphine 3 mg/kg s.c.; recording until 415-minute time point
Description: In total, 206 male CD rats (Charles River, Germany) weighing 200-250 grams (165-190 grams upon arrival) were used in the study. Animals were housed at a standard temperature (22±1° C.) and in a light-controlled environment (lights on from 7 am to 8 pm) with ad libitum access to food and water. The experiment described below was performed in accordance with the standard operating procedures of Charles River Discovery Research Services Finland Ltd. and in accordance with the national Animal Experiment Board of Finland (Elainkoelautakunta, ELLA) authority on animal testing.
The test device is a square Plexiglass-arena (measuring 40×40×40 cm), in which the movement paths of the rats are recorded by an activity monitor (Med. Associates Inc.). Before the test period is initiated, rats are habituated to their test cage for 60 minutes. Upon completion of habituation, animals were treated with either compound or vehicle and placed back into the open field apparatus. The main test parameter measured is ambulatory distance (recorded in 5 minute segments). Overall time of measurement after receiving initial treatment was 360 minutes. Total follow up period in the study was 420 minutes, including 60 minutes of habituation.
Blood samples were taken and processed and analyzed as described under PK experiments in rats in Example 3.

| Structure (SMILES) | Observed metabolite, Incubation in human hepatocytes (human hepatocytes) | Observed metabolite, Incubation in human plasma [1] | activity at 10 µM (human 5-HT2B receptor) [%] | Observed metabolite, In vivo PK study after oral dosing (rats) [2] | end of locomotor effect post administration (male CD rats) [h] |
| --- | --- | --- | --- | --- | --- |
| CCCN1CCC[C@@H]2Cc3c(ccc(OCc4ccccc4)c3O[C@@H]3O[C@H](C(=O)OCC)[C@@H](OC(=O)C(C)(C)C)[C@H](OC(=O)C(C)(C)C)[C@H]3OC(=O)C(C)(C)C)C[C@H]21 [Compound (13), (2S,3R,4S,5S,6S)-2-(((4aR,10aR)-7-(benzyloxy)-1-propyl-1,2,3,4,4a,5,10,10a-octahydrobenzo[g]quinolin-6-yl)oxy)-6-(ethoxycarbonyl)tetrahydro-2H-pyran-3,4,5-triyl tris(2,2-dimethylpropanoate)] | Compound (14) | – | – | – | – |
| CCCN1CCC[C@@H]2Cc3c(ccc(OC)c3O[C@@H]3O[C@H](C(=O)OC)[C@@H](OC(=O)C(C)(C)C)[C@H](OC(=O)C(C)(C)C)[C@H]3OC(=O)C(C)(C)C)C[C@H]21 [Compound (22), (2S,3S,4S,5R,6S)-2-((methoxy)carbonyl)-6-(((4aR,10aR)-7-methoxy-1-propyl-1,2,3,4,4a,5,10,10a-octahydrobenzo[g]quinolin-6-yl)oxy)tetrahydro-2H-pyran-3,4,5-triyl tris(2,2-dimethylpropanoate)] | Compound (21) | Compound (21) | – | – | – |
| CCCN1CCC[C@@H]2Cc3c(ccc(OC)c3O)C[C@H]21 [Compound A7, (4aR,10aR)-7-methoxy-1-propyl-1,2,3,4,4a,5,10,10a-octahydrobenzo[g]quinolin-6-ol] | Compound (I) | – | 27 | Compound (I) | – |
| CCCN1CCC[C@@H]2Cc3c(ccc(OCc4ccccc4)c3O[C@@H]3O[C@H](C(=O)OC)[C@@H](OC(=O)C(C)(C)C)[C@H](OC(=O)C(C)(C)C)[C@H]3OC(=O)C(C)(C)C)C[C@H]21 [Compound (25), (2S,3R,4S,5S,6S)-2-(((4aR,10aR)-7-(benzyloxy)-1-propyl-1,2,3,4,4a,5,10,10a-octahydrobenzo[g]quinolin-6-yl)oxy)-6-(methoxycarbonyl)tetrahydro-2H-pyran-3,4,5-triyl tris(2,2-dimethylpropanoate)] | Compound A2,; also recorded: Compound (24) | Compound A2,; also recorded: Compound (24) | – | – | – |
| CCCN1CCC[C@@H]2Cc3c(ccc(OCc4ccccc4)c3O[C@@H]3O[C@H](C(=O)OC)[C@@H](OC(C)=O)[C@H](OC(C)=O)[C@H]3OC(C)=O)C[C@H]21 [Compound (1), (2S,3R,4S,5S,6S)-2-(((4aR,10aR)-7-(benzyloxy)-1-propyl-1,2,3,4,4a,5,10,10a-octahydrobenzo[g]quinolin-6-yl)oxy)-6-(methoxycarbonyl)tetrahydro-2H-pyran-3,4,5-triyl triacetate] | Compound A2,; also recorded: Compound (4) | Compound A2,; also recorded: compound (2) | – | – | – |
| CCCN1CCC[C@@H]2Cc3c(ccc(O[C@@H]4O[C@H](C(=O)O)[C@@H](O)[C@H](O)[C@H]4O)c3O[C@@H]3O[C@H](C(=O)O)[C@@H](O)[C@H](O)[C@H]3O)C[C@H]21 [(Id-iab), (2S,2′S,3S,3′S,4S,4′S,5R,5′R,6S,6′S)-6,6′-(((4aR,10aR)-1-propyl-1,2,3,4,4a,5,10,10a-octahydrobenzo[g]quinoline-6,7-diyl)bis(oxy))bis(3,4,5-trihydroxytetrahydro-2H-pyran-2-carboxylic acid)] | Compound (I) | Compound (I) | – | Compound (I) | – |
| CN1CCc2cccc3c2[C@H]1Cc1ccc(O)c(O)c1-3 [apomorphine, reference compound] | – | – | – | – | 1.5 |
| CCCN1CCC[C@@H]2Cc3c(ccc(OCc4ccccc4)c3O[C@@H]3O[C@H](C(=O)OCC)[C@@H](OC(C)=O)[C@H](OC(C)=O)[C@H]3OC(C)=O)C[C@H]21 [Compound (10), (2S,3R,4S,5S,6S)-2-(((4aR,10aR)-7-(benzyloxy)-1-propyl-1,2,3,4,4a,5,10,10a-octahydrobenzo[g]quinolin-6-yl)oxy)-6-(ethoxycarbonyl)tetrahydro-2H-pyran-3,4,5-triyl triacetate] | Compound A2,; also recorded: Compound (4) | Compound A2,; also recorded: Compound (4) | – | – | – |
| CCCN1CCC[C@@H]2Cc3c(ccc(OC)c3O[C@@H]3O[C@H](C(=O)OCc4ccccc4)[C@@H](OC(=O)C(C)(C)C)[C@H](OC(=O)C(C)(C)C)[C@H]3OC(=O)C(C)(C)C)C[C@H]21 [Compound (20), (2S,3S,4S,5R,6S)-2-((benzyloxy)carbonyl)-6-(((4aR,10aR)-7-methoxy-1-propyl-1,2,3,4,4a,5,10,10a-octahydrobenzo[g]quinolin-6-yl)oxy)tetrahydro-2H-pyran-3,4,5-triyltris(2,2-dimethylpropanoate)] | Compound (21) | Compound (21) | – | – | – |
| CCCN1CCC[C@@H]2Cc3c(ccc(OCc4ccccc4)c3O[C@@H]3O[C@H](C(=O)OCc4ccccc4)[C@@H](OC(=O)C(C)(C)C)[C@H](OC(=O)C(C)(C)C)[C@H]3OC(=O)C(C)(C)C)C[C@H]21 [Compound (5), (2S,3R,4S,5S,6S)-2-(((4aR,10aR)-7-(benzyloxy)-1-propyl-1,2,3,4,4a,5,10,10a-octahydrobenzo[g]quinolin-6-yl)oxy)-6-((benzyloxy)carbonyl)tetrahydro-2H-pyran-3,4,5-triyl tris(2,2-dimethylpropanoate)] | Compound (24) | Compound (24) | – | – | – |
